Biological target: T1, LXRβ (Homo sapiens, UniProt P55055)
T1 construct: Co-transfection expression plasmids, comprising full-length LXRα (pCMX-h LXRα or LXRβ (pCMX-hLXRβ)); expressed in transfected cells; host or cells: CV-1 African green monkey kidney cells, transient transfection with pCMX-hLXRβ
T1 sequence (P55055 1-460): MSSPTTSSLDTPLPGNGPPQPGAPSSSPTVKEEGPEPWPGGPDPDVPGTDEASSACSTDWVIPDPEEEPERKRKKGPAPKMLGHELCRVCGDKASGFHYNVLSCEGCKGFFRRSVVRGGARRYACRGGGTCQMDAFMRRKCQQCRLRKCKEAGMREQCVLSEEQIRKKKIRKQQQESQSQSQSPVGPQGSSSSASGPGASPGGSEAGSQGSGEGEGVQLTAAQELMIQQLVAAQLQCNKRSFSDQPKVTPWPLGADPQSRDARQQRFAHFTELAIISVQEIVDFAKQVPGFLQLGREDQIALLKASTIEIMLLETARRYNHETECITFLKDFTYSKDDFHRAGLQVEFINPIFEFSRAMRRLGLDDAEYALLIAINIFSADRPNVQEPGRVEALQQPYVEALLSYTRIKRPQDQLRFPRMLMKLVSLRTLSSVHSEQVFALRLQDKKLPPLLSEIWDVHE
T1 sequence (P19793 1-462 partner): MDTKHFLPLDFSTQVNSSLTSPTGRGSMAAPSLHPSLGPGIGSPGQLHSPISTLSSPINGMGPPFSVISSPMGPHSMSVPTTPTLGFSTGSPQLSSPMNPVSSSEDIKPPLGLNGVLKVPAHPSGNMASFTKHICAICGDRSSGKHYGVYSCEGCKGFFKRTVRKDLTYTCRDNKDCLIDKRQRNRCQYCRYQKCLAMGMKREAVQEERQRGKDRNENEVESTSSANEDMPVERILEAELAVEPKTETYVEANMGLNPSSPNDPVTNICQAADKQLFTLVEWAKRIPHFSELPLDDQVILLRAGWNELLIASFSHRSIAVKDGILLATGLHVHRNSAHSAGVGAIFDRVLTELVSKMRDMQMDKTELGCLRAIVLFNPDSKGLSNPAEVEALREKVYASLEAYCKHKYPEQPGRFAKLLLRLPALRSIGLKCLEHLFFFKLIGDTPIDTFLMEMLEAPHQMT
Assay: LXR/LXRE co-transfection assay (luciferase reporter) in CV-1 cells, LXRβ
Type: cell-based
Settings: for EC50: CV-1 cells transfected with pCMX-hLXRβ and LXREx1-Tk-Luciferase, 20 hours incubation, read-out: LXRbeta agonism EC50; for Emax: CV-1 cells, relative to maximum response of high control N-(3-((4-fluorophenyl)-(naphthalene-2-sulfonyl)amino)propyl)-2,2-dimethylpropionamide, read-out: LXRbeta % EFFICACY
From the text: To measure the ability of compounds to activate or inhibit the transcriptional activity of LXR in a cell based assay, the co-transfection assay was used. It has been shown that LXR functions as a heterodimer with RXR. For the co-transfection assay, expression plasmids for LXRα and LXRβ are introduced separately via transient transfection into mammalian cells along with a luciferase reporter plasmid that contains one copy of a DNA sequence that is bound by LXR-RXR heterodimers (LXRE; Willy, P. et. al. 1995). LXRs heterodimerize with the endogenous RXR. Treatment of transfected cells with an LXR agonist increases the transcriptional activity of LXR, which is measured by an increase in luciferase activity.
Co-transfection expression plasmids, comprising full-length LXRα (pCMX-h LXRα or LXRβ (pCMX-hLXRβ), reporter plasmid (LXREx1-Tk-Luciferase), and control (pCMX-Galactosidase expression vector) (Willey et al. Genes & Development 9 1033-1045 (1995)).
CV-1 cells were prepared 24 hours prior to the experiment by plating them into T-175 flasks or 500 cm^2 dishes in order to achieve 70-80% confluency on the day of the transfection. The number of cells to be transfected was determined by the number of plates to be screened. Each well of a 384 well plate requires 1.5×10^4 cells. DNA Transfection Reagent was prepared by mixing the required plasmid DNAs with a cationic lipid transfection reagent Transit 2020 (Mirus Bio) for CV1 by following the instructions provided with the reagents. Optimal DNA amounts were determined empirically per cell line and size of vessel to be transfected. For each T175 cm^2 flask a total of 44.4 ug for CV1 of DNA, 133 ul Transit2020 and 4.5 ml DMEM for CV1 was mixed and added. Cells were then incubated at least 5 hours at 37° C. to prepare screening cells.
Assay plates were prepared by dispensing 5 μL of compound per well of a 384 well plate to achieve final compound concentration of 10 μM and no more than 0.5% DMSO. Media was removed from the screening cells, the cells trypsinized, harvested cells by centrifugation, counted, and plated at a density of approximately 1.5×10^4 cells in the 384 well assay plate prepared above in a volume of about 95 uL. Assay plates containing both compounds and screening cells (100 μL in total volume) were incubated for 20 hours at 37° C.
After incubation with compounds, media was removed from the cells and luciferase assay reagent (30 μL/well) added. After ˜2 minutes at ambient temperature, the assay plates were read on a luminometer (PE Biosystems Northstar reader with on-board injectors, or Envision (Perkin Elmer) or equivalent).
The LXR/LXRE co-transfection assay can be used to establish the EC50/IC50 values for potency and percent activity or inhibition for efficacy. Efficacy defines the activity of a compound relative to a high control ((N-(3-((4-fluorophenyl)-(naphthalene-2-sulfonyl)amino)propyl)-2,2-dimethylpropionamide)) or a low control (DMSO/vehicle). The dose response curves are generated from a 10 point curve with concentrations differing by ½ LOG units. Each point represents the average of 4 wells of data from a 384 well plate.
The data from this assay is fitted to the following equation, from which the EC50 value may be solved: Y=Bottom+(Top−Bottom)/(1+10^((log EC50-X)*HillSlope)).
The EC50/IC50 is therefore defined as the concentration at which an agonist or antagonist elicits a response that is halfway between the Top (maximum) and Bottom (baseline) values. The EC50/IC50 values represented are the averages of at least 2 and normally 3 independent experiments. The determination of the relative efficacy or % control for an agonist is by comparison to the maximum response achieved by ((N-(3-((4-fluorophenyl)-(naphthalene-2-sulfonyl)-amino)propyl)-2,2-dimethylpropionamide) that is measured individually in each dose response experiment.
Table 1 lists LXRβ EC50 values and % efficacy measurements in the cotransfection assay for examples of this invention.

SMILES | EC50 [nM] | Emax [%]
Cc1cc(C(F)(F)F)nn1-c1ccc(-c2cccc(S(C)(=O)=O)c2)cc1-c1ocnc1-c1ccc(OC(F)(F)F)cc1 [Example 307, 5-{3′-(methylsulfonyl)-4-[5-methyl-3-(trifluoromethyl)-1H-pyrazol-1-yl]biphenyl-3-yl}-4-{4-[(trifluoromethyl)oxy]phenyl}-1,3-oxazole] | 91 | 98
Cc1nc(-c2ccc(OC(F)(F)F)cc2)c(-c2cc(-c3cc(F)cc(S(C)(=O)=O)c3)ccc2-n2ccc(C(F)(F)F)n2)o1 [Example 334, 5-(3′-fluoro-5′-(methylsulfonyl)-4-(3-(trifluoromethyl)-1H-pyrazol-1-yl)biphenyl-3-yl)-2-methyl-4-(4-(trifluoromethoxy)phenyl)oxazole] | 305 | 80
CCOc1cc(C(F)(F)F)nn1-c1ccc(-c2cc(F)c(CO)c(S(C)(=O)=O)c2)cc1-c1nc(C)oc1-c1ccc(OC(F)(F)F)cc1 [Example 382, (4′-(5-ethoxy-3-(trifluoromethyl)-1H-pyrazol-1-yl)-3-fluoro-3′-(2-methyl-5-(4-(trifluoromethoxy)phenyl)oxazol-4-yl)-5-(methylsulfonyl)biphenyl-4-yl)methanol] | 629 | 50
Cc1nc(-c2ccc(OC(F)(F)F)cc2)c(-c2cc(-c3cccc(S(C)(=O)=O)c3)ccc2-n2ccc(CC#N)n2)o1 [Example 369, 2-(1-(3-(2-methyl-4-(4-(trifluoromethoxy)phenyl)oxazol-5-yl)-3′-(methylsulfonyl)-[1,1′-biphenyl]-4-yl)-1H-pyrazol-3-yl)acetonitrile] | 226 | 99
Cc1nc(-c2ccc3c(c2)OC(F)(F)O3)c(-c2cc(-c3cccc(S(C)(=O)=O)c3)ccc2-c2cc(C(C)(C)O)nn2C)o1 [Example 54, 2-(5-(3-(4-(2,2-difluorobenzo[d][1,3]dioxol-5-yl)-2-methyloxazol-5-yl)-3′-(methylsulfonyl)biphenyl-4-yl)-1-methyl-1H-pyrazol-3-yl)propan-2-ol] | 297 | 53
Cn1nc(C(F)(F)CO)cc1-c1ccc(-c2cccc(S(C)(=O)=O)c2)cc1-n1nncc1-c1ccc(Cl)cc1 [Example 24, 2-(5-(3-(5-(4-chlorophenyl)-1H-1,2,3-triazol-1-yl)-3′-(methylsulfonyl)-[1,1′-biphenyl]-4-yl)-1-methyl-1H-pyrazol-3-yl)-2,2-difluoroethanol] | 1380 | 48
CC(=O)c1cc(-c2ccc(-c3cc(F)c(CO)c(S(C)(=O)=O)c3)cc2-c2oc(C)nc2-c2ccc3c(c2)OC(F)(F)O3)n(C)n1 [Example 133, 1-(5-(3-(4-(2,2-difluorobenzo[d][1,3]dioxol-5-yl)-2-methyloxazol-5-yl)-3′-fluoro-4′-(hydroxymethyl)-5′-(methylsulfonyl)-[1,1′-biphenyl]-4-yl)-1-methyl-1H-pyrazol-3-yl)ethanone] | 12 | 66

More lines, in order of falling EC50, values ahead:

EC50 [nM] | Emax [%] | SMILES
317 | 42 | Cc1nc(-c2ccc(OC(F)(F)F)cc2)c(-c2cc(-c3cc(F)c(CO)c(S(C)(=O)=O)c3)ccc2-c2cc(C(F)(F)C(N)=O)nn2C)o1 [Example 70, 2,2-difluoro-2-(5-(3′-fluoro-4′-(hydroxymethyl)-3-(2-methyl-4-(4-(trifluoromethoxy)phenyl)oxazol-5-yl)-5′-(methylsulfonyl)biphenyl-4-yl)-1-methyl-1H-pyrazol-3-yl)acetamide]
143 | 63 | Cc1nc(-c2cc(-c3cccc(S(C)(=O)=O)c3)ccc2-n2nc(C(F)(F)F)cc2Cl)c(-c2ccc(OC(F)(F)F)cc2)o1 [Example 406, 4-(4-(5-chloro-3-(trifluoromethyl)-1H-pyrazol-1-yl)-3′-(methylsulfonyl)biphenyl-3-yl)-2-methyl-5-(4-(trifluoromethoxy)phenyl)oxazole]
48 | 82 | Cc1nc(-c2ccc3c(c2)OC(F)(F)O3)c(-c2cc(-c3cc(F)c(CO)c(S(C)(=O)=O)c3)ccc2-c2cc(C(C)(C)C#N)nn2C)o1 [Example 97, 2-(5-(3-(4-(2,2-difluorobenzo[d][1,3]dioxol-5-yl)-2-methyloxazol-5-yl)-3′-fluoro-4′-(hydroxymethyl)-5′-(methylsulfonyl)biphenyl-4-yl)-1-methyl-1H-pyrazol-3-yl)-2-methylpropanenitrile]
47 | 52 | Cc1nc(-c2ccc(OC(F)F)c(F)c2)c(-c2cc(-c3cc(F)c(CO)c(S(C)(=O)=O)c3)ccc2-c2cc(C(F)(F)C(N)=O)nn2C)o1 [Example 71, 2-(5-(3-(4-(4-(difluoromethoxy)-3-fluorophenyl)-2-methyloxazol-5-yl)-fluoro-4′-(hydroxymethyl)-5′-(methylsulfonyl)biphenyl-4-yl)-1-methyl-1H-pyrazol-3-yl)-2,2-difluoroacetamide]
32 | 87 | Cc1nc(-c2ccc3c(c2)OC(F)(F)O3)c(-c2cc(-c3cccc(S(C)(=O)=O)c3)ccc2-c2cc(C(C)(F)F)nn2C)o1 [Example 94, 4-(2,2-difluorobenzo[d][1,3]dioxol-5-yl)-5-(4-(3-(1,1-difluoroethyl)-1-methyl-1H-pyrazol-5-yl)-3′-(methylsulfonyl)biphenyl-3-yl)-2-methyloxazole]
10 | 72 | Cc1nc(-c2cc(-c3ccc(CO)c(S(C)(=O)=O)c3)ccc2-n2nc(C(F)(F)F)cc2C)c(-c2ccc3c(c2)OC(F)(F)O3)o1 [Example 390, (3′-(5-(2,2-difluorobenzo[d][1,3]dioxol-5-yl)-2-methyloxazol-4-yl)-4′-(5-methyl-3-(trifluoromethyl)-1H-pyrazol-1-yl)-3-(methylsulfonyl)biphenyl-4-yl) methanol]

Reference: patent US9751869B2, “LXR modulators” (BRISTOL-MYERS SQUIBB COMPANY, priority 2013, dated 2017)
